Results on three compounds are retold here after article PMC7239840, “A traffic light enzyme: acetate binding reversibly switches chlorite dismutase from a red- to a green-colored heme protein” (Journal of Biological Inorganic Chemistry, 2020).

What is called Kd is the equilibrium constant for the complex coming apart.

The target in test [1] is T1, chlorite dismutase (AoCld) (Azospira oryzae, UniProt E2DI02). The test can be described thus: UV-visible equilibrium binding titration (Soret band), pH […]; EPR low-spin adduct. The arrangement: recombinant, N-terminal His6 tag.
In test [2] the target is T2, chlorite dismutase (AoCld) R183A (Azospira oryzae, UniProt E2DI02, R217A).
T2 construct: recombinant, N-terminal His6 tag
In words: ligand binding to the R183A mutant (Fig. S7).

Test [3] deals with T1, chlorite dismutase (AoCld). The test can be described thus: UV-visible equilibrium binding titration (Soret band), pH […]; EPR with […] hyperfine splitting. Set-up: recombinant, N-terminal His6 tag.
Test [4] addresses T1, chlorite dismutase (AoCld). In words: biochemical.

T1 sequence (E2DI02 35-282): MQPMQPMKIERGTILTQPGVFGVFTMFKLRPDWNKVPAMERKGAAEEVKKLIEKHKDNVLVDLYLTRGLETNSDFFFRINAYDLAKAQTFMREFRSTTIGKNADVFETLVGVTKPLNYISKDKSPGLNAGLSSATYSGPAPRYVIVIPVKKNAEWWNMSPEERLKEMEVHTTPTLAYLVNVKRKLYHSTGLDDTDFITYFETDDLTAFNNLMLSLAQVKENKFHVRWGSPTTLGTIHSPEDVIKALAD
T2 sequence (E2DI02 35-282, stated change not applied): as the sequence (E2DI02 35-282) above

On to `c1c[nH]cn1` [Im, imidazole], for which, in test [1], the dissociation constant Kd was 0.0105 ± 0.0024 mM. Besides, in test [2], the “ligand binding to the R183A mutant (Fig. S7)” value was “Mutagenesis of Arg183 to Ala results in the complete loss of affinity for fluoride and acetate, but not for imidazole”. For `F` [F^−, fluoride], in test [3], the Kd is 15.6 ± 1.9 mM. As for `CC(=O)O` [Ac, acetate], in test [4], the Kd was determined as 17.5 ± 0.5 mM.
